# From patent US7259254B2, “Mutants and assay system to identify USP/RXR ligands” (University of Kentucky Research Foundation, priority 2002, dated 2007)
# Key:
# [1] = test system: Core promoter reporter with DR1, DR4 or DR12 nuclear hormone response element in Sf9 cells; assay: Sf9 cell transfection assay: methyl epoxyfarnesoate activation of DR-enhancer/Core promoter luciferase reporter; type: cell-based, Spodoptera frugiperda; conditions: transfected Sf9 cells, 75 μm methyl epoxyfarnesoate
# Experimental: Spodoptera frugiperda cell line, Sf9, was maintained and transfected as described previously Jones et al (1998) Biochem. J. 335, 79-84; Jones et al. (2000) Biochem. J. 346, 233-240. As an internal control to compare activities of different constructs, 0.3 μg of a constituitive heat-shock promoter-driven β-galactosidase gene was cotransfected. To study the role of USP in activation of the nuclear hormone receptor response element fused to core promoter in methyl epoxyfarnesoate-treated cells, cloned D. melangaster USP (dUSP) cDNA and its derivatives containing mutations in the ligand-binding pocket were cotransfected with the reporter and internal control plasmids. […] After 48 h of the treatment, the cells were harvested and the activity of the luciferase reporter was measured using a luciferase assay kit (Promega) in a multipurpose scintillation counter (Beckman, Fullerton, Calif.). β-Galactosidase activity was measured using chlorophenol red-[…] monosodium (CPRG; Roche Molecular Biochemicals) as a colorimetric substrate.
# The sequences and characteristics of the core promoter ([…]) of the JHE gene were described by Jones et al. (2001) Insect Biochem. Mol. Biol. 32, 33-49; Jones et al (1998) Biochem. J. 335, 79-84; 79-84; Jones et al. (2000) Biochem. J. 346, 233-240. The core promoter responds to respond to methyl epoxyfarnesoate through a heterologous 5′ flanking direct repeat motif in cell transfection assay. This Core promoter reporter was cloned into KpnI/BglII sites of pGL3. An NheI site was then placed immediately 5′ to the KpnI site, and multiple direct repeat (DR) sequences were cloned into the NheI site by the following method. […] Upon annealing, the double stranded oligonucleotides would then have a CTAG overhang at each 5′ end. The annealed oligonucleotides were then ligated into concatamers, fractionated by native PAGE and the gel fractions corresponding to higher concatamer forms recovered and ligated into the NheI site. Specific DR sequences for the oligonucleotides were (upper strand) for DR1: 5′-CAAGGTCAAAGGTCAG-3′ (SEQ ID NO: 13), for DR4: 5′-CAAGGTCAAGAAAGGTCAG-3′ (SEQ ID NO: 14), for DR12: 5′-[…]-3′ (SEQ ID NO: 15; CTAG on 5′ ends not shown). The recovered YDRXCore constructs (X representing 1, 4 or 12 intervening bases; Y representing the number of tandem pairs of direct repeats) were verified by sequencing. The intervening sequences in the DR1 and DR4 motifs were randomly chosen, while the DR12 sequence used is found in the ecdysteroid-sensitive ng-1 and ng-2 genes that are expressed during metamorphosis of D. melanogaster, and can serve in vitro as a binding site for the various receptor dimers involving USP (ecdysteroid receptor (EcR)/USP heterodimer, USP/DHR38 heterodimer and USP/USP homodimer. […]
# P498W/P499W mutant USP = target: T1, P498W/P499W mutant USP (Drosophila melanogaster, UniProt P20153, P498W/P499W); assay: Intrinsic tryptophan fluorescence ligand-binding assay, P498W/P499W mutant USP; conditions: excitation 290 nm, emission 340 nm
# T1 construct: His tag; made in house; host or cells: bacteria (pET32EK vector)
# T1 sequence (P20153 whole entry P498W/P499W): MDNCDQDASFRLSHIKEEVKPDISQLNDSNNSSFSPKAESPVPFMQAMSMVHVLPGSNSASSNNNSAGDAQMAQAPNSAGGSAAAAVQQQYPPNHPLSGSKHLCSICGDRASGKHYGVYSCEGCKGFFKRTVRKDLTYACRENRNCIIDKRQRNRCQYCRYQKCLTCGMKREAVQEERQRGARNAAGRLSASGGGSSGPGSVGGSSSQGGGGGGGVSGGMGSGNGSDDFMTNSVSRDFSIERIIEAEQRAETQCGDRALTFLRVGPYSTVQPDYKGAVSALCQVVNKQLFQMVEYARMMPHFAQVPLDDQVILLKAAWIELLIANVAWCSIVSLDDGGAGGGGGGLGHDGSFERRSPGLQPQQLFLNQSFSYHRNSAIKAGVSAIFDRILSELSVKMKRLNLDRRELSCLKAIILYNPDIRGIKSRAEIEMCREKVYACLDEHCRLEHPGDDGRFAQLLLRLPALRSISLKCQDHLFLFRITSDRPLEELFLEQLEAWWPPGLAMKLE
# Experimental: The homodimer-enriched fraction of bacterial recombinant His-dUSP fusion protein was purified by nickel resin selection, elution with imidazole, centrifugal concentration, and then gel permeation chromatography (Superdex 200) with procedures and chemical sources exactly as already described previously Jones et al. (2000) Insect Biochem. Mol. Biol. 30, 671-679. The homodimer-enriched fraction of the purified His-USP fusion protein was raised to 2 ml of NaCl and a final concentration of 0.5 μm. For a fluorescence-based ligand-binding assay based on intrinsic tryptophan fluorescence Jones et al. (2001) Insect Biochem. Mol. Biol. 32, 33-49; Jones et al (1998) Biochem. J. 335, 79-84; 79-84; Jones et al. (2000) Biochem. J. 346, 233-240; Jones et al (1997) Proc. Natl. Acad. Sci. USA 94, 13499-13503, ligand or ethanol carrier was added and the receptor preparation excited at 290 nm and monitored for emission at 340 nm, until the signal from the receptor had stabilized. Fluorescence was measured three times for each sample, with standard deviation typically smaller than the graphical plotted datum point. Each fluorescence experiment was replicated on three or more independent occasions, each time with similar results. […]
# [2] = test system: Core promoter reporter with DR1, DR4 or DR12 nuclear hormone response element in Sf9 cells; conditions: previous studies; cited from earlier work
# C472A/H475L mutant dUSP = target: T2, C472A/H475L mutant dUSP (Drosophila melanogaster, UniProt P20153, C472A/H475L); assay: Intrinsic tryptophan fluorescence ligand-binding assay, C472A/H475L mutant dUSP; conditions: 75 μm ligand; excitation 290 nm, emission 340 nm
# T2 construct: His tag; made in house; host or cells: bacteria (pET32EK vector)
# T2 sequence (P20153 whole entry C472A/H475L): as the sequence (P20153 whole entry P498W/P499W) above, with C472A, H475L, W498P, W499P counted along it
# Experimental: (§1) The homodimer-enriched fraction of bacterial recombinant His-dUSP fusion protein was purified by nickel resin selection, elution with imidazole, centrifugal concentration, and then gel permeation chromatography (Superdex 200) with procedures and chemical sources exactly as already described previously Jones et al. (2000) Insect Biochem. Mol. Biol. 30, 671-679. The homodimer-enriched fraction of the purified His-USP fusion protein was raised to 2 ml of NaCl and a final concentration of 0.5 μm. For a fluorescence-based ligand-binding assay based on intrinsic tryptophan fluorescence Jones et al. (2001) Insect Biochem. Mol. Biol. 32, 33-49; Jones et al (1998) Biochem. J. 335, 79-84; 79-84; Jones et al. (2000) Biochem. J. 346, 233-240; Jones et al (1997) Proc. Natl. Acad. Sci. USA 94, 13499-13503, ligand or ethanol carrier was added and the receptor preparation excited at 290 nm and monitored for emission at 340 nm, until the signal from the receptor had stabilized. Fluorescence was measured three times for each sample, with standard deviation typically smaller than the graphical plotted datum point. Each fluorescence experiment was replicated on three or more independent occasions, each time with similar results.
# (§2) The ability of the wild-type dUSP and dominant negative, ligand-binding pocket mutant dUSP to bind methyl epoxyfarnesoate was tested.
# [3] = target: T3, His-tagged wild-type dUSP (Drosophila melanogaster, UniProt P20153); assay: Intrinsic tryptophan fluorescence ligand-binding assay, wild-type dUSP; conditions: excitation 290 nm, emission 340 nm, 0.5 μm receptor
# T3 construct: His tag; made in house; host or cells: bacteria (pET32EK vector)
# T3 sequence (P20153 1-508): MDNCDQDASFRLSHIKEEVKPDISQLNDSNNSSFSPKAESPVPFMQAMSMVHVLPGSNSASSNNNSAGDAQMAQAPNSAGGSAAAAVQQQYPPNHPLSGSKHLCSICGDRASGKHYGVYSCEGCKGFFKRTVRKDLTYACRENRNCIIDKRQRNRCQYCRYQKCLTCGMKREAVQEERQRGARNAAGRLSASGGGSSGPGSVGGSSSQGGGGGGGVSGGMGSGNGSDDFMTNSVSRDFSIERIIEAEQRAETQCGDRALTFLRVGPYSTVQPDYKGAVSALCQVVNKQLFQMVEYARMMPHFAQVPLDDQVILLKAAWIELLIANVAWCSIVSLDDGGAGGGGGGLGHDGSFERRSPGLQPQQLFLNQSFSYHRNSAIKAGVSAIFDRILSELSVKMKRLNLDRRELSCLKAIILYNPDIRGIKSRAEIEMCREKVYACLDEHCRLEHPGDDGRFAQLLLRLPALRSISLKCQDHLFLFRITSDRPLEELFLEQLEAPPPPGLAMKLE
# Experimental: as §1, §2
smiles,measurement,setting,value
COC(=O)C=C(C)CCC=C(C)CCC1OC1(C)C (stereo not drawn) [methyl epoxyfarnesoate],"induction in promoter activity, four tandem copies of DR1 motif",[1],2.5 fold
same,"induction in promoter activity, four tandem copies of DR4 motif",[1],3.5 fold
same,responsiveness of 1DR12mutCore (both DR12 half sites mutated),[1],no greater than the background of a Core promoter with no enhancer
same,"induction in promoter activity, 4DR12Core construct",[1]; four tandem DR12 motifs,10 fold
same,"effect on receptor intrinsic fluorescence, P498W/P499W mutant USP",P498W/P499W mutant USP,sharply increasing in fluorescence before then decreasing
same,concentration of maximum effect (dose dependent),[2],~75 μm
same,"effect on receptor intrinsic fluorescence (ligand binding), C472A/H475L mutant dUSP",C472A/H475L mutant dUSP,did not exhibit a significant response
same,"effect on receptor intrinsic fluorescence (ligand binding), wild-type dUSP",[3],suppressed the fluorescence
same,"effect on receptor intrinsic fluorescence (ligand binding), wild-type dUSP",[3]; listed as Methyl epoxyfarnesoate,suppression of receptor fluorescence
